Data from patent US7541457B2, “Amphiphilic trisulfonated porphyrazines for photodynamic applications in medicine” (Universite de Sherbrooke, priority 2003, dated 2009).

Tests used:
[1] = system: EMT-6 murine mammary tumor cells; assay: Phototoxicity (cellular photoinactivation, MTT) against EMT-6 tumor cells in vitro; format: cell-based; details: for LD90 (light dose for 90% cell kill): dye 1 μM, red light 660-700 nm
[2] = system: EMT-6 mammary tumours; assay: PDT of EMT-6 mammary tumors in BALB/c mice; format: in vivo
Description: All experiments were performed on male BALB/c mice (18-22g) (Charles River Breeding Laboratories, Montreal, Quebec, Canada) bearing two EMT-6 mammary tumours. The experiments were conducted following a protocol approved by the Canadian Council on Animal Care and the in-house ethics committee. Animals were allowed free access to water and food throughout the experiments. Before tumour implantation, hair on the hind legs and the backs of the mice was removed by shaving and chemical depilating (Nair, Whitehall, Mississauga, Canada). The two tumors were implanted on the backs of the animals by intradermal injection of 2-3×10^5 EMT-6 cells suspended in 0.05 ml Waymouth's growth medium.
For PDT tumor response studies, mice were used 7-10 d after tumor cell inoculation (mean external tumor size 4.5-6.0 mm diameter and approximately 2.5 mm thickness). The mice were given an intravenous administration of […] of porphyrazine dye in PBS (0.2 mL/20 g) through the tail vein. […] Mice were examined daily for 20 days following PDT in order to assess tumor response (necrosis) and recurrence.
At the highest dye dose over 50% of the animals responded with complete tumor regression as observed 3 weeks after treatment.

[3] = system: plasma extravasation in STZ-diabetic rat retinal vessels; assay: PDT of plasma extravasation (Evans Blue) in STZ-diabetic rat retina; format: in vivo, Wistar rats; details: for Inhibition of plasma extravasation: 0.5 μmole/kg
Description: (§1) The long established Evans Blue technique was used to measure plasma extravasation. Under anesthesia with a 10 mg/kg mixture of Ketamine and Xylazine, 250 g male wistar rats were injected with 45 mg/kg Evans Blue through a canula placed in the jugular vein. Ten minutes later, the experimental procedure was started. At the end of experiments, the animals were sacrificed and their eyes were enucleated. Both eyes combined were placed into 300 μl of formamide and incubated at 70° C. for 18 hours. Following incubation the supernatant absorbance at 620 nm was read with a spectrophotometer. A standard curve was used to determine the concentration of Evans Blue, which was expressed in μg/ml.
After an overnight fast, diabetes was induced with a single 65 mg/kg intraperitoneal injection of streptozotocin (STZ) in 10 mM citrate buffer, pH 4.5. Animals that served as non diabetic controls received an equivalent amount of citrate buffer alone. One week later, just prior to experimentation, blood glucose levels were measured to determine diabetic status. Only rats with blood glucose higher than 20 mM were deemed STZ-diabetic.
Conscious rats were injected with the photosensitizing drug through the tail vein six hours prior to irradiation with red light onto the retina. […] Subsequently the eyes were enucleated and tested for Evan's Blue levels.

[4] = system: Vascular Endothelial Growth Factor evoked plasma extravasation; assay: PDT of VEGF-165 evoked plasma extravasation (Evans Blue) in rat retina; format: in vivo, Wistar rats
Description: as §1
Rats anesthetized with a mixture of Ketamine and Zylazine (10 mg/kg) were injected with 2 μl of VEGF-165 prepared in saline, directly into the vitreous, using a Hamilton micro syringe. A period of 10 min was allotted for the plasma extravasation response to occur. After the response to VEGF-165 developed, the eyes were enucleated and subjected to spectrophotometric analysis for Evan's Blue.
[…] […] Subsequently the eyes were enucleated and tested for Evan's Blue levels.

[5] = system: EMT-6 mammary tumours; assay: PDT of EMT-6 mammary tumors in BALB/c mice; format: in vivo; details: for Necrosis (flat and necrotic tissue within 2 days post-PDT): light 24 h later, 670 nm, 400 J/cm^2

Substance | LD90 (light dose for 90% cell kill) ([1]; 6 h incubation) [J · cm^−2] | LD90 (light dose for 90% cell kill) ([1]; 24 h incubation) [J · cm^−2] | Relative phototoxicity within the alkylyl series ([1]; compounds 45-49, 6 h and 24 h incubation) | Tumor response (flattening and necrosis) within 48 h after PDT ([2]; all dye doses used, 0.5-1 μmole/kg) | Mortality ([2]; any of the dye and light doses used) | Mortality ([2]; dye dose 1 μmole/kg) [%] | Necrosis (flat and necrotic tissue within 2 days post-PDT) ([2]; dye dose 1 μmole/kg i.v., light 24 h later, 670 nm, 400 J/cm^2) [%] | Inhibition of plasma extravasation ([3]; light 6 h after drug, 45 J/cm2, total fluence 3 J) | Plasma extravasation after PDT ([3]; STZ-diabetic rats, interval drug to light extended from 1 hour up to 6 hours) | Relative potency as inhibitor of plasma extravasation ([3]; among the five molecules tested, light 6 h after drug) | Inhibition of plasma extravasation ([3]; diabetic rats, red light 680 nm, 25 mW/cm^2, 20 J/cm^2) | Inhibition of plasma extravasation ([4]; VEGF-165 injected rats, 0.5 μmole/kg, red light 680 nm, 25 mW/cm^2, 20 J/cm^2) | Plasma extravasation after PDT ([4]; VEGF-165 treated STZ-diabetic rats, 5 hour interval between photosensitizer administration and light) | Cure (absence of a palpable tumor 3 weeks post-PDT) ([5]; dye dose 0.5 μmole/kg) [%] | Mortality ([5]; dye dose 0.5 μmole/kg) [%] | Necrosis (flat and necrotic tissue within 2 days post-PDT) ([5]; dye dose 0.5 μmole/kg i.v.) [%] | Cure (absence of a palpable tumor 3 weeks post-PDT) ([5]; dye dose 0.75 μmole/kg) [%] | Mortality ([5]; dye dose 0.75 μmole/kg) [%] | Necrosis (flat and necrotic tissue within 2 days post-PDT) ([5]; dye dose 0.75 μmole/kg i.v.) [%]
Zinc tri-(4-sulfobenzo)-5-mono-[(1-hexynyl)naphtho]-porphyrazine [Compound 46] | 4.1 | 1.2 | highest phototoxicity | All treated tumors responded | No mortality occurred | 0 | 100 | completely inhibited plasma extravasation | reduced plasma extravasation to the level of control non-diabetic rats | most potent inhibitor of plasma extravasation | completely inhibited plasma extravasation to control levels | completely inhibited plasma extravasation to control levels | reach control levels | 0 | 0 | 100 | 20 | 0 | 100
zinc trisulfophthalocyanine [ZnPcS3, reference compound] | 5.9 | 2.2 |  |  |  |  |  |  |  |  |  |  |  |  |  |  |  |  | 
